The source of these data is patent EP0908457B1, “3-(1,2-benzisothiazol- and isoxazol-5-Y1)-2,4(1H,3H)-pyrimidinedione or thione and 3-(1,2-benzisothiazol- and isoxazol-5-y1)-4(3H)-pyrimidinone or thione herbicidal agents” (BASF AKTIENGESELLSCHAFT, priority 1997, dated 1999).

The subject of data set [1] is Echinochloa oryzoides (Ard.) Fritsch. The data set is described as follows: Preemergence weed control under flooded paddy conditions, ECHORC (Watergrass (Calif.)). It counts as in vivo. Conditions: preemergence, flooded paddy, rated three to four weeks after treatment.
Data set [2] deals with Monochoria vaginalis, Presl. The data set is described as follows: Preemergence weed control under flooded paddy conditions, MOOVA (Monochoria). It is filed as in vivo. Conditions: preemergence, flooded paddy, rated three to four weeks after treatment.
Data set [3] relates to Cyperus iria. Nature of the data set: Preemergence weed control under flooded paddy conditions, CYPIR (Rice Flatsedge). It counts as in vivo. As to conditions: preemergence, flooded paddy, rated three to four weeks after treatment.
The test system of data set [4] is Cyperus serotinus, Rottb. The data set is described as follows: Preemergence weed control under flooded paddy conditions, CYPSE (Flatsedge). Conditions: preemergence, rated three to four weeks after treatment. It counts as in vivo.
For data set [5], the system named is Oryza sativa, (L.) Tebonnet. Nature of the data set: Rice tolerance to post-transplant applications under flooded paddy conditions (Example 187), ORYSAT (Rice, Tebonnet). Conditions: rated three to four weeks after treatment.
Data set [6] relates to Sagittaria pygmaea, L. Nature of the data set: Preemergence weed control under flooded paddy conditions, SAGPY (Arrowhead (Pygmaea)). Conditions: preemergence, flooded paddy, rated three to four weeks after treatment. It is filed as in vivo.

Take `Cn1c(C(F)(F)F)cc(=O)n(-c2ccc3snc(C(C)(C)C#N)c3c2)c1=O` [Example 256, 1,2-Benzisothiazole-3-acetonitrile, 5-[3,6-dihydro-3-methyl-2,6-dioxo-4-(trifluoromethyl)-1(2H)-pyrimidinyl)-alpha,alpha-dimethyl-]: the “ECHORC herbicidal effect rating” value came out at 1.0 in data set [1] (Rate 0.0320 kg/ha), 3.0 in data set [1] (Rate 0.0620 kg/ha), 7.0 in data set [1] (Rate 0.1250 kg/ha) and 9.0 in data set [1] (Rate 0.2500 kg/ha). In addition, the “MOOVA herbicidal effect rating” value is 8.0 in data set [2] (Rate 0.0320 kg/ha), 9.0 in data set [2] (Rate 0.0620 kg/ha), 9.0 in data set [2] (Rate 0.1250 kg/ha) and 9.0 in data set [2] (Rate 0.2500 kg/ha). In addition, the “CYPIR herbicidal effect rating” value in data set [3] (Rate 0.0320 kg/ha) came out at 8.0; in data set [3] (Rate 0.0620 kg/ha), 9.0; in data set [3] (Rate 0.1250 kg/ha), 9.0; in data set [3] (Rate 0.2500 kg/ha), 9.0. The “CYPSE herbicidal effect rating” value in data set [4] (Rate 0.0320 kg/ha) came to 0.0; in data set [4] (Rate 0.0620 kg/ha), 2.0; in data set [4] (Rate 0.1250 kg/ha) it was 6.0; in data set [4] (Rate 0.2500 kg/ha), 9.0. The “ORYSAT herbicidal effect rating” value in data set [5] (Rate 0.0320 kg/ha) came out at 6.0; in data set [5] (Rate 0.0620 kg/ha), 8.0; in data set [5] (Rate 0.1250 kg/ha) it was 8.0; in data set [5] (Rate 0.2500 kg/ha), 9.0. Also, the “SAGPY herbicidal effect rating” value in data set [6] (Rate 0.0320 kg/ha) turned out to be 0.0; in data set [6] (Rate 0.0620 kg/ha) it was 0.0; in data set [6] (Rate 0.1250 kg/ha), 4.0; in data set [6] (Rate 0.2500 kg/ha) it was 8.0.

For the compound `COP(=O)(Cc1nsc2ccc(-n3c(=O)cc(C(F)(F)F)n(C)c3=O)cc12)OC` [Example 262, 1,2-Benzisothiazole-3-methanephosphonic acid, 5-[3,6-dihydro-3-methyl-2,6-dioxo-4-(trifluoromethyl)-1(2H)-pyrimidinyl]-, dimethyl ester], the “ECHORC herbicidal effect rating” value in data set [1] (Rate 0.0620 kg/ha) stood at 0.0; in data set [1] (Rate 0.1250 kg/ha) it was 0.0; in data set [1] (Rate 0.2500 kg/ha), 3.0. Also, the “MOOVA herbicidal effect rating” value is recorded as 0.0 in data set [2] (Rate 0.0620 kg/ha), 9.0 in data set [2] (Rate 0.1250 kg/ha) and 9.0 in data set [2] (Rate 0.2500 kg/ha). In addition, the figures for the “CYPIR herbicidal effect rating” value in data set [3] (Rate 0.0620 kg/ha), in data set [3] (Rate 0.1250 kg/ha) and in data set [3] (Rate 0.2500 kg/ha) were 0.0, 6.0 and 9.0, respectively. Also, the “CYPSE herbicidal effect rating” value in data set [4] (Rate 0.0620 kg/ha), in data set [4] (Rate 0.1250 kg/ha) and in data set [4] (Rate 0.2500 kg/ha) was 0.0 each time. Also, the “ORYSAT herbicidal effect rating” value stood at 0.0 in data set [5] (Rate 0.0620 kg/ha), 0.0 in data set [5] (Rate 0.1250 kg/ha) and 3.0 in data set [5] (Rate 0.2500 kg/ha). Also, the “SAGPY herbicidal effect rating” value in data set [6] (Rate 0.0620 kg/ha), in data set [6] (Rate 0.1250 kg/ha) and in data set [6] (Rate 0.2500 kg/ha) was 0.0 in each case.
